Laboratory results published in PubChem BioAssay (NCI).
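Following 48 hours of exposure in 96-well plates, responses at five concentrations were used to interpolate endpoints linearly. TGI: concentration producing complete growth inhibition.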

Key:
Assay in all cases: NCI tumour cell line growth inhibition, 48 h
BT-549 breast = test system: BT-549 breast
SF-539 CNS = test system: SF-539 CNS
A549 NSCLC = test system: A549 NSCLC
HOP-92 NSCLC = test system: HOP-92 NSCLC
OVCAR-3 ovarian = test system: OVCAR-3 ovarian
IGROV1 ovarian = test system: IGROV1 ovarian
EKVX NSCLC = test system: EKVX NSCLC
COLO 205 colon = test system: COLO 205 colon
RPMI-8226 leukemia = test system: RPMI-8226 leukemia
UACC-257 melanoma = test system: UACC-257 melanoma

Compound: CC(=O)Oc1ccc2c(c1)CC[C@@H]1C2[C@@H](O[N+](=O)[O-])C[C@@]2(C)C1CC[C@@H]2O[N+](=O)[O-] (stereo partly drawn)
- TGI (BT-549 breast): 33.8 µM
- TGI (SF-539 CNS): 35.9 µM
- TGI (A549 NSCLC): 29.1 µM
- TGI (HOP-92 NSCLC): 23.5 µM
- TGI (OVCAR-3 ovarian): 28.5 µM
- TGI (IGROV1 ovarian): 30.7 µM
- TGI (EKVX NSCLC): 26.6 µM
- TGI (COLO 205 colon): 34.2 µM
- TGI (RPMI-8226 leukemia): 31 µM
- TGI (UACC-257 melanoma): 25.9 µM

Compound: CCOC(=O)C(NC(=O)c1ccccc1)(N1CCN(c2cc3c(cc2F)c(=O)c(C(=O)O)cn3CC)CC1)C(F)(F)F (stereo not drawn)
- TGI (BT-549 breast): > 100 µM
- TGI (SF-539 CNS): 82.9 µM
- TGI (A549 NSCLC): > 100 µM
- TGI (HOP-92 NSCLC): 84.4 µM
- TGI (OVCAR-3 ovarian): > 100 µM
- TGI (IGROV1 ovarian): > 100 µM
- TGI (EKVX NSCLC): 49 µM
- TGI (COLO 205 colon): 31.1 µM
- TGI (RPMI-8226 leukemia): 69 µM
- TGI (UACC-257 melanoma): 44.7 µM

Compound: Cc1nc(C)c(N2CCNCC2)c(=O)[nH]1
- TGI (BT-549 breast): > 100 µM
- TGI (SF-539 CNS): > 100 µM
- TGI (A549 NSCLC): > 100 µM
- TGI (HOP-92 NSCLC): > 100 µM
- TGI (OVCAR-3 ovarian): > 100 µM
- TGI (IGROV1 ovarian): > 100 µM
- TGI (EKVX NSCLC): > 100 µM
- TGI (COLO 205 colon): > 100 µM
- TGI (RPMI-8226 leukemia): > 100 µM
- TGI (UACC-257 melanoma): > 100 µM

Compound: CC(C)=CCC/C(C)=C/COc1c2ccoc2cc2oc(=O)ccc12
- TGI (BT-549 breast): > 100 µM
- TGI (SF-539 CNS): > 100 µM
- TGI (A549 NSCLC): > 100 µM
- TGI (HOP-92 NSCLC): > 100 µM
- TGI (OVCAR-3 ovarian): 57.6 µM
- TGI (IGROV1 ovarian): > 100 µM
- TGI (EKVX NSCLC): 72 µM
- TGI (COLO 205 colon): 32.4 µM
- TGI (RPMI-8226 leukemia): 42.1 µM
- TGI (UACC-257 melanoma): 90.4 µM

Compound: CCOC(=O)NC(OC)(C(F)(F)F)C(F)(F)F
- TGI (BT-549 breast): > 100 µM
- TGI (SF-539 CNS): > 100 µM
- TGI (A549 NSCLC): > 100 µM
- TGI (HOP-92 NSCLC): > 100 µM
- TGI (OVCAR-3 ovarian): > 100 µM
- TGI (IGROV1 ovarian): > 100 µM
- TGI (EKVX NSCLC): > 100 µM
- TGI (COLO 205 colon): > 100 µM
- TGI (RPMI-8226 leukemia): > 100 µM
- TGI (UACC-257 melanoma): > 100 µM

Compound: NC1=Nc2cc(Cl)ccc2Sc2nc3ccccc3n21
- TGI (BT-549 breast): > 100 µM
- TGI (SF-539 CNS): > 100 µM
- TGI (A549 NSCLC): > 100 µM
- TGI (HOP-92 NSCLC): 71 µM
- TGI (OVCAR-3 ovarian): > 100 µM
- TGI (IGROV1 ovarian): > 100 µM
- TGI (EKVX NSCLC): > 100 µM
- TGI (COLO 205 colon): > 100 µM
- TGI (RPMI-8226 leukemia): > 100 µM
- TGI (UACC-257 melanoma): > 100 µM

Compound: COC1=CC(=O)CC(C)C12Oc1c(Cl)c(OC)cc(OC)c1C2=O (stereo not drawn)
- TGI (BT-549 breast): > 89 µM
- TGI (SF-539 CNS): 42.1 µM
- TGI (A549 NSCLC): > 100 µM
- TGI (HOP-92 NSCLC): 98.3 µM
- TGI (OVCAR-3 ovarian): > 100 µM
- TGI (IGROV1 ovarian): > 100 µM
- TGI (EKVX NSCLC): > 100 µM
- TGI (COLO 205 colon): 64 µM
- TGI (RPMI-8226 leukemia): > 100 µM
- TGI (UACC-257 melanoma): > 100 µM

Compound: C[C@@H]1C(=O)C[C@H]2C(C)(C)CCC[C@]2(C)[C@@]1(O)CCc1ccoc1
- TGI (BT-549 breast): > 100 µM
- TGI (SF-539 CNS): > 100 µM
- TGI (A549 NSCLC): > 100 µM
- TGI (HOP-92 NSCLC): > 100 µM
- TGI (OVCAR-3 ovarian): > 100 µM
- TGI (IGROV1 ovarian): > 100 µM
- TGI (EKVX NSCLC): > 100 µM
- TGI (COLO 205 colon): > 100 µM
- TGI (RPMI-8226 leukemia): > 100 µM
- TGI (UACC-257 melanoma): > 100 µM

Compound: Nc1ncn2c(n1)nc1ccccc12
- TGI (BT-549 breast): > 100 µM
- TGI (SF-539 CNS): > 100 µM
- TGI (A549 NSCLC): > 100 µM
- TGI (HOP-92 NSCLC): > 100 µM
- TGI (IGROV1 ovarian): > 100 µM
- TGI (EKVX NSCLC): > 100 µM
- TGI (COLO 205 colon): > 100 µM
- TGI (RPMI-8226 leukemia): > 100 µM
- TGI (UACC-257 melanoma): > 100 µM

Compound: Cc1cc(S(=O)(=O)Nc2nc3ccccc3nc2-c2ccc(Cl)cc2)c(S)cc1Cl
- TGI (BT-549 breast): 50.6 µM
- TGI (SF-539 CNS): 34 µM
- TGI (A549 NSCLC): 33.6 µM
- TGI (HOP-92 NSCLC): 46.9 µM
- TGI (OVCAR-3 ovarian): 29.9 µM
- TGI (IGROV1 ovarian): 24.9 µM
- TGI (EKVX NSCLC): 29.1 µM
- TGI (COLO 205 colon): 30.2 µM
- TGI (RPMI-8226 leukemia): 68.5 µM
- TGI (UACC-257 melanoma): 44.2 µM

Compound: Nc1[nH]nc2nc3ccccc3nc12
- TGI (BT-549 breast): > 100 µM
- TGI (SF-539 CNS): > 100 µM
- TGI (A549 NSCLC): > 100 µM
- TGI (HOP-92 NSCLC): > 100 µM
- TGI (OVCAR-3 ovarian): > 100 µM
- TGI (IGROV1 ovarian): 99.2 µM
- TGI (EKVX NSCLC): > 100 µM
- TGI (COLO 205 colon): > 100 µM
- TGI (RPMI-8226 leukemia): > 100 µM
- TGI (UACC-257 melanoma): > 100 µM

Compound: CC(C)(C)OC(=O)CN1CCNCCN(CC(=O)OC(C)(C)C)CCNCC1
- TGI (BT-549 breast): > 100 µM
- TGI (SF-539 CNS): > 100 µM
- TGI (A549 NSCLC): > 100 µM
- TGI (HOP-92 NSCLC): > 100 µM
- TGI (OVCAR-3 ovarian): > 100 µM
- TGI (IGROV1 ovarian): > 100 µM
- TGI (EKVX NSCLC): > 100 µM
- TGI (COLO 205 colon): > 100 µM
- TGI (RPMI-8226 leukemia): > 100 µM
- TGI (UACC-257 melanoma): > 100 µM

Compound: O=c1[nH]cc(Cl)c(=O)[nH]1
- TGI (BT-549 breast): > 100 µM
- TGI (SF-539 CNS): > 100 µM
- TGI (A549 NSCLC): > 100 µM
- TGI (HOP-92 NSCLC): > 100 µM
- TGI (OVCAR-3 ovarian): > 100 µM
- TGI (IGROV1 ovarian): > 100 µM
- TGI (EKVX NSCLC): > 100 µM
- TGI (COLO 205 colon): > 100 µM
- TGI (RPMI-8226 leukemia): > 100 µM
- TGI (UACC-257 melanoma): > 100 µM

Compound: Cc1cc(S(=O)(=O)Nc2nnc3cnc4ccccc4n23)c(S)cc1Cl
- TGI (BT-549 breast): > 100 µM
- TGI (SF-539 CNS): > 100 µM
- TGI (A549 NSCLC): > 100 µM
- TGI (HOP-92 NSCLC): > 85.9 µM
- TGI (OVCAR-3 ovarian): > 100 µM
- TGI (IGROV1 ovarian): > 100 µM
- TGI (EKVX NSCLC): > 100 µM
- TGI (COLO 205 colon): > 100 µM
- TGI (RPMI-8226 leukemia): > 100 µM
- TGI (UACC-257 melanoma): > 100 µM

Compound: COC1=CC2(CC(OC)=C1OC)OC21COc2ccccc2C1=O (stereo not drawn)
- TGI (BT-549 breast): > 100 µM
- TGI (SF-539 CNS): > 100 µM
- TGI (A549 NSCLC): > 100 µM
- TGI (HOP-92 NSCLC): > 100 µM
- TGI (OVCAR-3 ovarian): > 100 µM
- TGI (IGROV1 ovarian): > 100 µM
- TGI (EKVX NSCLC): > 100 µM
- TGI (COLO 205 colon): > 100 µM
- TGI (RPMI-8226 leukemia): > 100 µM
- TGI (UACC-257 melanoma): > 100 µM

Compound: CC(=O)Oc1c(-c2ccccc2)sc2ccccc12
- TGI (BT-549 breast): 50 µM
- TGI (SF-539 CNS): 46.8 µM
- TGI (A549 NSCLC): 37.9 µM
- TGI (HOP-92 NSCLC): 49.8 µM
- TGI (IGROV1 ovarian): 30.7 µM
- TGI (EKVX NSCLC): 53 µM
- TGI (COLO 205 colon): 30.2 µM
- TGI (RPMI-8226 leukemia): 24.8 µM
- TGI (UACC-257 melanoma): 37 µM

Compound: Cc1ccc(C2=C(C#N)C(N)OC3=C2COc2ccccc23)cc1 (stereo not drawn)
- TGI (BT-549 breast): > 100 µM
- TGI (SF-539 CNS): > 100 µM
- TGI (A549 NSCLC): > 100 µM
- TGI (HOP-92 NSCLC): > 100 µM
- TGI (OVCAR-3 ovarian): 41.9 µM
- TGI (IGROV1 ovarian): > 100 µM
- TGI (EKVX NSCLC): 37.4 µM
- TGI (COLO 205 colon): > 100 µM
- TGI (RPMI-8226 leukemia): > 100 µM
- TGI (UACC-257 melanoma): > 100 µM

Compound: O=C(/C=C/c1cccc(Oc2ccccc2)c1)NCc1ccc(C(=O)NCCc2ccccc2)cc1
- TGI (BT-549 breast): > 100 µM
- TGI (SF-539 CNS): > 100 µM
- TGI (A549 NSCLC): > 100 µM
- TGI (HOP-92 NSCLC): > 100 µM
- TGI (OVCAR-3 ovarian): > 100 µM
- TGI (IGROV1 ovarian): > 100 µM
- TGI (EKVX NSCLC): > 100 µM
- TGI (COLO 205 colon): > 100 µM
- TGI (RPMI-8226 leukemia): > 100 µM
- TGI (UACC-257 melanoma): > 100 µM

Compound: Cc1ccc(-c2nc(N/N=C/c3ccc(O)cc3)c3ccccc3n2)cc1
- TGI (BT-549 breast): > 100 µM
- TGI (SF-539 CNS): > 100 µM
- TGI (A549 NSCLC): > 100 µM
- TGI (HOP-92 NSCLC): > 100 µM
- TGI (OVCAR-3 ovarian): > 100 µM
- TGI (IGROV1 ovarian): > 100 µM
- TGI (EKVX NSCLC): 37.4 µM
- TGI (COLO 205 colon): > 100 µM
- TGI (RPMI-8226 leukemia): > 100 µM
- TGI (UACC-257 melanoma): 15.4 µM
